From patent US8003785B2 (Takeda Pharmaceutical Company Limited, priority 2008, dated 2011)

target: T1, PLK1 (Homo sapiens, UniProt P53350); test: Biochemical Characterization Assay: HTRF kinase assay, GST-PLK1 phosphorylation of GST-p53; settings: GST-PLK1, GST-p53 substrate
T1 construct: Full-length, active GST-PLK1 is purified from Sf9 insect cells; made in house; host or cells: Sf9 insect cells
Procedure, shortened: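 HTRF read-out of p53 phosphorylation: after EDTA stop, anti-phospho-p53 antibody bound 30 min at 37 °C in HEPES pH 7 buffer, with Eu-anti-rabbit/APC-anti-GST detection. Kinase step used full-length Sf9-expressed GST-PLK1 (3 ug/mL) and E. coli GST-p53 substrate, 35 min at 37 °C.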

T1 sequence (P53350 whole entry): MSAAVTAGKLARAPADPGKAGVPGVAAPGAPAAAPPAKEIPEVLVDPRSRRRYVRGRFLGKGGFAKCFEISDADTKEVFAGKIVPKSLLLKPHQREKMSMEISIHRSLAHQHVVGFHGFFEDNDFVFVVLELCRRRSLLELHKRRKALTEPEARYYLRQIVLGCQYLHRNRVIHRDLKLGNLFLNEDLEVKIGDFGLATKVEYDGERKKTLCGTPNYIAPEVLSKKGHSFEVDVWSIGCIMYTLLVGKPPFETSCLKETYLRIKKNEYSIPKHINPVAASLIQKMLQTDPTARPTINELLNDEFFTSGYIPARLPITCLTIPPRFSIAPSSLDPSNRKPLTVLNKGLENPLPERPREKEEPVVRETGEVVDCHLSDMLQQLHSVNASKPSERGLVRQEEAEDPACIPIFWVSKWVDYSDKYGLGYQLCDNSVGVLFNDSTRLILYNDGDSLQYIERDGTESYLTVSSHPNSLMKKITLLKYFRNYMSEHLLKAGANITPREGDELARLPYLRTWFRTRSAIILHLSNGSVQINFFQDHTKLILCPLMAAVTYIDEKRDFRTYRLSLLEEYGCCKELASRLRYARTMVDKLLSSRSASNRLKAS

| SMILES | IC50 |
| --- | --- |
| COc1cc(C(=O)NC2CCN(C)CC2)ccc1Nc1ncc2c(n1)N(C1CCCC1)CC(Cl)(Cl)C(=O)N2C [Example I-298, 4-(7,7-dichloro-9-cyclopentyl-5-methyl-6-oxo-6,7,8,9-tetrahydro-5H-pyrimido[4,5-b][1,4]diazepin-2-ylamino)-3-methoxy-N-(1-methyl-piperidin-4-yl)-benzamide] | 0.001 to 0.05 µM |
| CCOc1cc(C(=O)NC2CCNCC2)ccc1Nc1ncc2c(n1)N(C1CCCC1)CC(F)(F)C(=O)N2C [Example I-222, 4-(9-cyclopentyl-7,7-difluoro-5-methyl-6-oxo-6,7,8,9-tetrahydro-5H-pyrimido[4,5-b][1,4]diazepin-2-ylamino)-3-ethoxy-N-piperidin-4-yl-benzamide] | 0.001 to 0.05 µM |
| CCCN1C(=O)C(F)(F)CN(C2CCCC2)c2nc(Nc3ccc(C(=O)NC)cc3OC)ncc21 [Example I-164, 4-(9-cyclopentyl-7,7-difluoro-6-oxo-5-propyl-6,7,8,9-tetrahydro-5H-pyrimido[4,5-b][1,4]diazepin-2-ylamino)-3-methoxy-N-methyl-benzamide] | 0.5 to 5 µM |
| CN(C)CCCNC(=O)c1ccc(Nc2ncc3c(n2)N(C2CCCC2)CC(F)(F)C(=O)N3C)c(F)c1 [Example I-227, 4-(9-cyclopentyl-7,7-difluoro-5-methyl-6-oxo-6,7,8,9-tetrahydro-5H-pyrimido[4,5-b][1,4]diazepin-2-ylamino)-N-(3-dimethylamino-propyl)-3-fluoro-benzamide] | 0.001 to 0.05 µM |
| COc1cc(C(=O)NC2CCN(C)CC2)ccc1Nc1ncc2c(n1)N(CCCc1ccccc1)CC(F)(F)C(=O)N2C [Example I-282, 4-[7,7-difluoro-5-methyl-6-oxo-9-(3-phenyl-propyl)-6,7,8,9-tetrahydro-5H-pyrimido[4,5-b][1,4]diazepin-2-ylamino]-3-methoxy-N-(1-methyl-piperidin-4-yl)-benzamide] | 0.001 to 0.05 µM |
| COc1ccc(CN2CC(F)(F)C(=O)N(C)c3cnc(Nc4ccc(C(=O)NC5CCN(C)CC5)cc4OC)nc32)cc1 [Example I-291, 4-[7,7-difluoro-9-(4-methoxy-benzyl)-5-methyl-6-oxo-6,7,8,9-tetrahydro-5H-pyrimido[4,5-b][1,4]diazepin-2-ylamino]-3-methoxy-N-(1-methyl-piperidin-4-yl)-benzamide] | 0.051 to 0.5 µM |
| COc1cc(C(N)=O)ccc1Nc1ncc2c(n1)N([C@@H]1C[C@H]1c1ccccc1)CC(F)(F)C(=O)N2C (relative stereo) [Example I-289, 4-[7,7-difluoro-5-methyl-6-oxo-9-(trans-2-phenyl-cyclopropyl)-6,7,8,9-tetrahydro-5H-pyrimido[4,5-b][1,4]diazepin-2-ylamino]-3-methoxy-benzamide] | > 5 µM |

same assay, conditions: GST-PLK1, GST-p53 substrate, ATP

| SMILES | IC50 |
| --- | --- |
| COCCCNC(=O)c1ccc(Nc2ncc3c(n2)N(C2CCCC2)CC(F)(F)C(=O)N3C)c(OC)c1 [Example I-29, 4-(9-cyclopentyl-7,7-difluoro-5-methyl-6-oxo-6,7,8,9-tetrahydro-5H-pyrimido[4,5-b][1,4]diazepin-2-ylamino)-3-methoxy-N-(3-methoxy-propyl)-benzamide] | 0.001 to 0.05 µM |
| CN1C(=O)C(F)(F)CN(C2CCC2)c2nc(Nc3ccc(C(=O)N4CCC(N)CC4)cc3)ncc21 [Example I-15, 2-[4-(4-amino-piperidine-1-carbonyl)-phenylamino]-9-cyclobutyl-7,7-difluoro-5-methyl-5,7,8,9-tetrahydro-pyrimido[4,5-b][1,4]diazepin-6-one] | 0.051 to 0.5 µM |
| COc1cc(C(=O)N2CCN(C)CC2)ccc1Nc1ncc2c(n1)N(C1CCCC1)CC(F)(F)C(=O)N2C [Example I-128, 9-cyclopentyl-7,7-difluoro-2-[2-methoxy-4-(4-methyl-piperazine-1-carbonyl)-phenylamino]-5-methyl-5,7,8,9-tetrahydro-pyrimido[4,5-b][1,4]diazepin-6-one] | 0.001 to 0.05 µM |
| COc1cc(C(=O)NC2CCOCC2)ccc1Nc1ncc2c(n1)N(C1CCCC1)CC(F)(F)C(=O)N2C [Example I-124] | 0.001 to 0.05 µM |
| COc1cc(C(=O)NCCC2CCCN2C)ccc1Nc1ncc2c(n1)N(C1CCCC1)CC(F)(F)C(=O)N2C (centres unmarked) [Example I-112, 4-(9-cyclopentyl-7,7-difluoro-5-methyl-6-oxo-6,7,8,9-tetrahydro-5H-pyrimido[4,5-b][1,4]diazepin-2-ylamino)-3-methoxy-N-[2-(1-methyl-pyrrolidin-2-yl)-ethyl]-benzamide] | 0.001 to 0.05 µM |
| CN1CCC(NC(=O)c2ccc(Nc3ncc4c(n3)N(C3CCCC3)CC(F)(F)C(=O)N4)cc2)CC1 [Example I-134, 4-(9-cyclopentyl-7,7-difluoro-6-oxo-6,7,8,9-tetrahydro-5H-pyrimido[4,5-b][1,4]diazepin-2-ylamino)-N-(1-methyl-piperidin-4-yl)-benzamide] | 0.051 to 0.5 µM |
| CCN1C(=O)C(F)(F)CN(C2CCCC2)c2nc(Nc3ccc(C(=O)NC4CCN(C)CC4)cc3)ncc21 [Example I-141, 4-(9-cyclopentyl-5-ethyl-7,7-difluoro-6-oxo-6,7,8,9-tetrahydro-5H-pyrimido[4,5-b][1,4]diazepin-2-ylamino)-N-(1-methyl-piperidin-4-yl)-benzamide] | 0.051 to 0.5 µM |
| CCN1C(=O)C(F)(F)CN(C2CCCC2)c2nc(Nc3ccc(C(N)=O)cc3)ncc21 [Example I-139, 4-(9-cyclopentyl-5-ethyl-7,7-difluoro-6-oxo-6,7,8,9-tetrahydro-5H-pyrimido[4,5-b][1,4]diazepin-2-ylamino)-benzamide] | 0.5 to 5 µM |
| CN(C)CCCNC(=O)c1ccc(Nc2ncc3c(n2)N(C2CCCC2)CC(F)(F)C(=O)N3)cc1 [Example I-135, 4-(9-cyclopentyl-7,7-difluoro-6-oxo-6,7,8,9-tetrahydro-5H-pyrimido[4,5-b][1,4]diazepin-2-yl-amino)-N-(3-dimethyl-amino-propyl)-benzamide] | 0.5 to 5 µM |
| COc1cc(C(=O)NCCCNC2CCCCC2)ccc1Nc1ncc2c(n1)N(C1CCCC1)CC(F)(F)C(=O)N2C [Example I-53, N-(3-cyclohexylamino-propyl)-4-(9-cyclopentyl-7,7-difluoro-5-methyl-6-oxo-6,7,8,9-tetrahydro-5H-pyrimido[4,5-b][1,4]diazepin-2-ylamino)-3-methoxy-benzamide] | 0.001 to 0.05 µM |
| COc1cc(C(=O)NCC2CN(C(=O)OC(C)(C)C)C2)ccc1Nc1ncc2c(n1)N(C1CCCC1)CC(F)(F)C(=O)N2C [Example I-91, 3-{[4-(9-cyclopentyl-7,7-difluoro-5-methyl-6-oxo-6,7,8,9-tetrahydro-5H-pyrimido[4,5-b][1,4]diazepin-2-ylamino)-3-methoxy-benzoylamino]-methyl}-azetidine-1-carboxylic acid tert-butyl ester] | 0.001 to 0.05 µM |
| COc1cc(C(=O)N(C)C)ccc1Nc1ncc2c(n1)N(C1CCCC1)CC(F)(F)C(=O)N2C [Example I-125, 4-(9-cyclopentyl-7,7-difluoro-5-methyl-6-oxo-6,7,8,9-tetrahydro-5H-pyrimido[4,5-b][1,4]diazepin-2-ylamino)-3-methoxy-N,N-dimethyl-benzamide] | 0.001 to 0.05 µM |
| COc1cc(C(=O)NC2CCN(c3ccccn3)CC2)ccc1Nc1ncc2c(n1)N(C1CCCC1)CC(F)(F)C(=O)N2C [Example I-108, 4-(9-cyclopentyl-7,7-difluoro-5-methyl-6-oxo-6,7,8,9-tetrahydro-5H-pyrimido[4,5-b][1,4]diazepin-2-ylamino)-3-methoxy-N-(3,4,5,6-tetrahydro-2H-[1,2′]bipyridinyl-4-yl)-benzamide] | 0.001 to 0.05 µM |
| COc1cc(C(=O)NCc2ccsc2)ccc1Nc1ncc2c(n1)N(C1CCCC1)CC(F)(F)C(=O)N2C [Example I-33, 4-(9-cyclopentyl-7,7-difluoro-5-methyl-6-oxo-6,7,8,9-tetrahydro-5H-pyrimido[4,5-b][1,4]diazepin-2-ylamino)-3-methoxy-N-thiophen-3-ylmethyl-benzamide] | 0.051 to 0.5 µM |
| COc1cc(C(=O)NC2CCN(C(=O)C(C)(C)N)CC2)ccc1Nc1ncc2c(n1)N(C1CCCC1)CC(F)(F)C(=O)N2C [Example I-88, N-[1-(2-amino-2-methyl-propionyl)-piperidin-4-yl]-4-(9-cyclopentyl-7,7-difluoro-5-methyl-6-oxo-6,7,8,9-tetrahydro-5H-pyrimido[4,5-b][1,4]diazepin-2-ylamino)-3-methoxy-benzamide] | 0.001 to 0.05 µM |
| COc1cc(C(=O)NCc2cccnc2)ccc1Nc1ncc2c(n1)N(C1CCCC1)CC(F)(F)C(=O)N2C [Example I-111, 4-(9-cyclopentyl-7,7-difluoro-5-methyl-6-oxo-6,7,8,9-tetrahydro-5H-pyrimido[4,5-b][1,4]diazepin-2-ylamino)-3-methoxy-N-pyridin-3-yl-methyl benzamide] | 0.001 to 0.05 µM |
| COc1cc(C(=O)N[C@H]2CCNC(=O)C2)ccc1Nc1ncc2c(n1)N(C1CCCC1)CC(F)(F)C(=O)N2C [Example I-90, S-4-(9-cyclopentyl-7,7-difluoro-5-methyl-6-oxo-6,7,8,9-tetrahydro-5H-pyrimido[4,5-b][1,4]diazepin-2-ylamino)-3-methoxy-N-(2-oxo-piperidin-4-yl)-benzamide] | 0.001 to 0.05 µM |
| COc1cc(C(=O)NCCCN2CCCC2=O)ccc1Nc1ncc2c(n1)N(C1CCCC1)CC(F)(F)C(=O)N2C [Example I-113, 4-(9-cyclopentyl-7,7-difluoro-5-methyl-6-oxo-6,7,8,9-tetrahydro-5H-pyrimido[4,5-b][1,4]diazepin-2-ylamino)-3-methoxy-N-[3-(2-oxo-pyrrolidin-1-yl)-propyl]-benzamide] | 0.001 to 0.05 µM |
| COc1cc(C(=O)NC2CCN(CCF)CC2)ccc1Nc1ncc2c(n1)N(C1CCCC1)CC(F)(F)C(=O)N2C [Example I-75, 4-(9-cyclopentyl-7,7-difluoro-5-methyl-6-oxo-6,7,8,9-tetrahydro-5H-pyrimido[4,5-b][1,4]diazepin-2-ylamino)-N-[1-(2-fluoro-ethyl)-piperidin-4-yl]-3-methoxy-benzamide] | 0.001 to 0.05 µM |
